This note sets out measurements from patent US4014860A, “Plasminostreptin (enzyme inhibitor) and method for producing it from streptomyces” (Takeda Chemical Industries, Ltd., priority 1972, dated 1977).

The target in one series is T1, Plasmin-SK (Homo sapiens, UniProt P00747).
T1 construct: made in house
Put plainly: Plasmin-fibrin system (fibrin plate method). It is filed as biochemical. The method, then:
1. Plasmin-SK: The euglobulin fraction obtained from human blood plasma is dissolved in buffer (1) which is described below and then, activated with streptokinase (Lederle) [Annual Report of Takeda Research Laboratories, 28, 140 (1969)].
1. Plasmin-fibrin system (fibrin plate method): Ten ml of a fibrinogen solution (1%, buffer (1)) is placed in a petri dish (9 cm in diameter) and gelled by the addition of 0.2 ml of thrombin [50 J. P. units (Japanese Pharmacopeia units)/ml, 0.145 M sodium chloride]. The gel is allowed to stand at 30° C for 30 minutes to prepare a fibrin plate. Meanwhile, paper discs (8mm in diameter, water-absorbing capacity: 0.025 ml) are dipped in a plasminostreptin solution of varying concentrations and allowed to dry on a filter paper in the air.
Then, 0.015 ml of a plasmin-SK solution is dropped onto each of the discs, which is placed on the above fibrin plate. After the system is allowed to stand at 37° C for 5 to 10 hours, the formation of lyzed zone in evaluated. The plasmin-inhibiting activity of plasminostreptin is indicated as the concentration of plasminostreptin solution required for a complete inhibition of fibrinolysis.

Series [1] has as its target T2, plasmin-UK (Homo sapiens, UniProt P00747).
T2 construct: purchased Midorijuji
Put plainly: Plasmin-fibrin system (determination of clot lysis time). The following applies: 50% inhibition of 0.08 casein units of plasmin-UK. It is filed as biochemical. On the procedure: (§1) 2. Plasmin - UK (Midorijuji, urokinase-activated plasmin)
(2) Plasmin-fibrin system (determination of clot lysis time): Into a small test tube are poured 0.4 ml of a fibrinogen solution (0.25%, buffer (1)), 0.3 ml of buffer (1) and 0.1 ml of plasminostreptin solution of varying concentrations, followed by the addition of 0.1 ml of a plasmin-UK solution [0.8 casein units/ml, buffer (1)]. The mixture in blended well and immediately thereafter, 0.1 ml of a thrombin solution (50 J. P. units/ml, 0.145 M sodium chloride) is added. The resulting gel is allowed to stand at 37° C and the time necessary to lyse the clot is measured. The plasmin-inhibiting activity of plasminostreptin is determined by the procedure set forth in Biochimica Biophysica Acta. 214, 411 (1970). Thus, the amount of plasminostreptin which is required for a 50% inhibition of the activity of 0.08 casein units of plasmin-UK, which occurs in the reaction mixture, is determined from the concentration of plasminostreptin which will double the clot lysis time in the absence of plasminostreptin, and the above amount is indicated in units of ID50.
Target sequence in this assay (P00747 581-810 limits assumed): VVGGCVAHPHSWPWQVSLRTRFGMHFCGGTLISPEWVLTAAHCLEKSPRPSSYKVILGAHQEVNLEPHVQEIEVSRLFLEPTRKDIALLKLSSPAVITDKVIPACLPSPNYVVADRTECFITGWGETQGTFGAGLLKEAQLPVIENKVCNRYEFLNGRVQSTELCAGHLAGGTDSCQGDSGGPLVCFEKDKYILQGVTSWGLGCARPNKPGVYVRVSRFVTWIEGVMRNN
Target sequence in this assay (P00747 97-580 partner limits assumed): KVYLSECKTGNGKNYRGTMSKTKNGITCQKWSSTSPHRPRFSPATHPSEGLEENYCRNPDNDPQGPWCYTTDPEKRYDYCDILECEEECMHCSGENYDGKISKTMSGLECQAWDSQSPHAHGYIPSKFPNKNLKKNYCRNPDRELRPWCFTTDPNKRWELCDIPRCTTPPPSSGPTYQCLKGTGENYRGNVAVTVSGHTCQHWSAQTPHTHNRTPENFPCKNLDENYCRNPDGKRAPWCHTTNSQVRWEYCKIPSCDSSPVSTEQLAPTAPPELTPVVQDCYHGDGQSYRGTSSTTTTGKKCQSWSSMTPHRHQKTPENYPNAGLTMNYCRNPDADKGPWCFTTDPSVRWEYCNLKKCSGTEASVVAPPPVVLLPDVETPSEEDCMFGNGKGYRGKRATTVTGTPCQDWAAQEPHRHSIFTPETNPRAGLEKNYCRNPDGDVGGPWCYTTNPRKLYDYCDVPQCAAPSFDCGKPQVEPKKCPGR

The target of series [2] is T2, plasmin-UK. Put plainly: Plasmin-casein system. It is filed as biochemical. The following applies: 50% inhibition of 0.4 casein units of plasmin-UK; casein substrate. The method, then: as §1
Target sequence in this assay (P00747 581-810 limits assumed): as the sequence (P00747 581-810 limits assumed) above
Target sequence in this assay (P00747 97-580 partner limits assumed): as the sequence (P00747 97-580 partner limits assumed) above
3. plasmin-casein system: Into a test tube are poured 1 ml of casein solution [4%, buffer (2)], 0.5 ml of buffer (2) and 0.3 ml of a plasminostreptin solution of varying concentrations, followed by the addition of 0.2 ml of plasmin-UK solution [2 casein units/ml, buffer (2)]. The mixture is blended well and allowed to stand at 37° C for 20 minutes. The reaction is terminated by the addition of 2 ml of 1.7 M perchloric acid and the system is allowed to stand at room temperature for another 1 hour. The reaction mixture is filtered through a filter paper and the absorbance of the resulting filtrate at 280 mμ is measured.
The plasmin-inhibiting activity of plasminostreptin is determined and indicated as follows.
Thus, the amount of plasminostreptin is determined which is required to effect a 50% inhibition of the activity of 0.4 casein units of plasmin-UK in the absence of plasminostreptin and is shown in units of ID50.

The target of a further series is T3, Trypsin (Bos taurus, UniProt P00760).
T3 construct: purchased Sigma Type III
T3 sequence (P00760 24-246): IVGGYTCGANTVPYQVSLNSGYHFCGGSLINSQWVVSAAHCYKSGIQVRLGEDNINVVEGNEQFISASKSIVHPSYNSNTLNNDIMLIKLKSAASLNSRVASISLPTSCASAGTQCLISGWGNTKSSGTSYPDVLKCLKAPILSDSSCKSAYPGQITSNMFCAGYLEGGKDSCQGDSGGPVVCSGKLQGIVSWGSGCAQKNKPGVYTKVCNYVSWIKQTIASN
Put plainly: Trypsin-casein system. It is filed as biochemical. The settings on record: 50% inhibition of 10 μg of trypsin; casein substrate. The method, then:
3. Trypsin (Sigma, crystalline, Type III)
Into a test tube are poured 1 ml of a casein solution [2%, buffer (2)], 0.5 ml of buffer (2) and 0.3 ml of a plasminostreptin solution of varying concentrations and after the addition of 0.2 ml of a trypsin solution [50 μg/ml, buffer(2)], the mixture is blended well and allowed to stand under conditions similar to those described for the plasmin-casein system. Thereafter, also in the same manner as described above, the amount of plasminostreptin required for a 50% inhibition of the activity of 10 μg of trypsin in the absence of plasminostreptin is determined and indicated in units of ID50.

Series [3] has as its system Fusarium alkaline protease. Nature of the series: Fusarium alkaline protease-casein system. It is filed as biochemical. The settings on record: 50% inhibition of 4 μg of Fusarium alkaline protease; casein substrate, pH 10.5. The method, then:
4. fusarium crystalline alkaline protease (U.S.P. No. 3652399)
(§2) Into a test tube are poured 1 ml of a casein solution [2%, buffer (3)], 0.5 ml of buffer (3), and 0.4 ml of a plasminostreptin solution of varying concentration and after the addition of 0.1 ml of either a Fusarium alkaline protease solution [40 μg/ml, buffer (3)] or Nagarse solution [100 μg/ml, buffer (3)], the mixture is blended well and allowed to stand under conditions similar to those described for the plasmin-casein system. Thereafter, also in the same manner as described above, the amount of plasminostreptin required for a 50% inhibition of the activity of 4 μg of Fusarium alkaline protease and 10 μg of Nagarse in the absence of plasminostreptin is determined, respectively, and indicated in units of ID50.

The next series addresses T4, Nagarse (Bacillus amyloliquefaciens, UniProt P00782).
T4 construct: purchased Nagase Sangyo
T4 sequence (P00782 108-382): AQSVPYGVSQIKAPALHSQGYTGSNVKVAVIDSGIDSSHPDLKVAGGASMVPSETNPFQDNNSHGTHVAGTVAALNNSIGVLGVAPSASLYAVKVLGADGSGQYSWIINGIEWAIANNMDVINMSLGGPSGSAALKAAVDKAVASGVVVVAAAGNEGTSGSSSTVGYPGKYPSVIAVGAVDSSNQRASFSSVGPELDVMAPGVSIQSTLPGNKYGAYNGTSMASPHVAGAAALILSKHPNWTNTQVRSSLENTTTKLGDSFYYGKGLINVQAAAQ
Put plainly: Nagarse-casein system. Format: biochemical. The following applies: 50% inhibition of 10 μg of Nagarse; casein substrate, pH 10.5. On the procedure: 5. Nagarse(crystalline protease, Nagase Sangyo)
as §2

Series [4] concerns the target T5, kallikrein (Beyer, Depot - Padutin) (Sus scrofa, UniProt P00752).
T5 construct: purchased Beyer (so in the source); Bayer) Depot - Padutin
Put plainly: Kallikrein esterase activity against benzoylarginine ethyl ester. The settings on record: result in words. It is filed as biochemical.

The target in series [5] is T2, plasmin-UK. Nature of the series: Plasmin activity of rat blood plasma before and after intravenous administration. Format: in vivo. The following applies: rats, 0.8 mg intravenous, 1 hour after administration; result in words. The method, then: From each of five rats (male, SD, 7 weeks old), blood samples are taken before the administration of plasminostreptin and also 1 hour after the intravenous administration of 0.8 mg plasminostreptin. The plasma is separated from each of the blood samples and the abovementioned plasmin-UK solution is added in each plasma sample to various concentrations.
Immediately thereafter, the activity of plasmin in each plasma sample is determined using casein as substrate. The plasmin activity of blood plasma samples from each rat before and after the administration of plasminostreptin are compared.
Target sequence in this assay (P00747 581-810 limits assumed): as the sequence (P00747 581-810 limits assumed) above
Target sequence in this assay (P00747 97-580 limits assumed): as the sequence (P00747 97-580 partner limits assumed) above

For another series, the system named is mice. Put plainly: Acute toxicity tests in mice. It is filed as in vivo. From the text:
The toxicity of plasminostreptin is extremely low and its LD50 values as determined by acute toxicity tests in mice are more than 5 g/kg orally, more than 5 g/kg intraperitoneally and 2 to 3 g/kg, intravenously.

The nature of a further series: Solubility. Format: physicochemical.
A short description of series [6]: Stability (heat treatment, remaining activity). Format: physicochemical. The settings on record: 30 minutes' treatment at pH 4-9 and at 100° C. On the procedure: More than 50 percent of the original activity remains intact even after a 30 minutes' treatment at pH 4-9 and at 100° C.
Series [7] can be described thus: Isoelectric point by isoelectric focussing method. It is filed as physicochemical. The text has this: 6. Isoelectric point: about 6.3 as determined by the isoelectric focussing method Acta Chemica Scandinavica,20, 820 (1966)

Bounds are passed on as bounds.

T1 sequence (P00747 581-810 limits assumed): as the sequence (P00747 581-810 limits assumed) above
T1 sequence (P00747 97-580 partner limits assumed): as the sequence (P00747 97-580 partner limits assumed) above
T5 sequence (P00752 8-246): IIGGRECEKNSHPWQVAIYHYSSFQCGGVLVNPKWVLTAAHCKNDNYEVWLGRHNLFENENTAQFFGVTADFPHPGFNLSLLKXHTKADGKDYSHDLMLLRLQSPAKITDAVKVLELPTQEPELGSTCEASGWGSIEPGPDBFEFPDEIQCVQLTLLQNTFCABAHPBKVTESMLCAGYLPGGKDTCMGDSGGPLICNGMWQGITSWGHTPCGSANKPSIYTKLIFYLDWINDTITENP

For the substance plasminostreptin, on Plasmin-SK (fibrin plate method, crystalline product of Example 1), the “concentration for a complete inhibition of fibrinolysis” value stood at 20 µg/mL. At Plasmin-SK (fibrin plate, complete inhibition of fibrinolysis, Table 3), the “Concentration for complete inhibition” value is less than 30 µg/mL. Besides, the ID50 is less than 10 µg at plasmin-UK [1]; less than 10 µg at plasmin-UK [2]; less than 5 µg on Trypsin; less than 6 µg in [3]; less than 5 µg on Nagarse. In addition, the “Inhibition of the activity of kallikrein” value in series [4] was “can hardly be detected”. Moreover, the “plasmin activity of blood plasma after administration” value at plasmin-UK [5] is on record as “significantly inhibited”. Further, the LD50 entry with mice (intraperitoneally) and in the series with mice (orally) was “more than 5 g/kg” each time. The results for the “Solubility in aqueous solution” value in the series “Solubility” (ammonium sulfate at 60% saturation) and in “Solubility” (neighborhood of pH 6) were “almost completely precipitated” and “solubility drops”, respectively. The Solubility entry in “Solubility” (glacial acetic acid, alcohols, acetone, chloroform, ether, hexane and other organic solvents) is “only sparingly soluble”; in “Solubility” (pyridine), “slightly soluble”; in “Solubility” (water and aqueous ammonia), “Soluble”. For the same substance, the “original activity remaining intact” value in series [6] was “More than 50%”. Also, the Isoelectric point result in series [7] was “about 6.3”.
